Data as given in US8829203B2, “3′,6-substituted indirubins and their biological applications” (Centre National de la Recherche Scientifique (CNRS), priority 2008, dated 2014).

Legend:
[1] = tested on: Per2 promoter (PPer2) activity, Rat-1 fibroblasts; experiment: Luminescence assay of circadian rhythmicity, Rat-1 fibroblasts PPer2::Fluc; format: cell-based; conditions: 10 μM, left continuously, monitored 4 days
Procedure: FIGS. 3a and 3b: the alteration of the circadian period in mammalian fibroblasts by the indirubin derivatives. Rat-1 fibroblasts stably transfected with a PPer2::Fluc reporter construct show a robust circadian rhythm of luminescence as a gauge of clock-controlled Per2 promoter (PPer2) activity. Cells were cultured up to 100% confluence and treated for 2 h with 0.1 μM dexamethasone to synchronize the oscillators. The medium was then replaced with assay medium supplemented with 0.1 mM luciferin and the luminescence rhythm was monitored for 4 days or more. Compounds were added to the culture dishes at 10 μM and left continuously. DMSO was used as a solvent control. Regression analyses were used to determine period and phase of the luminescence rhythms. 3a. Time-course of a typical luminescence rhythm recorded in control cells (◯) or cells treated with indirubin 15 (•). White arrows indicate the peaks of luminescence in control cells, black arrows indicate the peaks of luminescence in indirubin 15 treated cells. 3b. Period lengths calculated in cells exposed to various compounds. C, control; K, kenpaullone.
The cells were cultured in DMEM (11965-092, GIBCO/Invitrogen) supplemented with 5% FBS, 50 units/ml penicillin, and 50 μg/ml streptomycin in a 5% CO2 incubator at 37° C. […] The luminescence rhythm was monitored in a LumiCycle (Actimetrics Inc., Evanston, Ill., USA). […]

GSK-3α/β = GSK-3α/β kinase assay (GS-1 substrate, 15 μM ATP); format: biochemical, porcine; conditions: 30° C., 30 min, read-out: GSK3 IC50
Procedure: (§1) Blank values were subtracted and activities calculated as pmoles of phosphate incorporated during a […] incubation. The activities were expressed in % of the maximal activity, i.e. in the absence of inhibitors. Controls were performed with appropriate dilutions of dimethylsulfoxide. Phosphorylation of the substrate was assessed by the P81 phosphocellulose assay.
GSK-3α/β was purified from porcine brain by affinity chromatography on immobilized axin^5. […] ATP (3,000 Ci/mmol; 10 mCi/ml) in a final volume of 30 μl. After 30 min. incubation at 30° C., 25 μl aliquots of supernatant were processed as described above.

CDK5/p25 = CDK5/p25 (Homo sapiens, UniProt Q00535); experiment: CDK5/p25 kinase assay (histone H1, 15 μM ATP); format: biochemical; conditions: 30° C., 30 min
Procedure: as §1
CDK5/p25 was reconstituted by mixing equal amounts of recombinant human CDK5 and p25 expressed in E. coli as GST (Glutathione-S-transferase) fusion proteins and purified by affinity chromatography on glutathione-agarose (p25 is a truncated version of p35, the 35 kDa CDK5 activator). Its activity was assayed with histone H1 in buffer C as described for CDK1/cyclin B.

CDK1/cyclin B = CDK1/cyclin B kinase assay (histone H1, 15 μM ATP); format: biochemical, starfish (Marthasterias glacialis); conditions: 30° C., 30 min

Chain of CDK5/p25 (Q00535 whole entry): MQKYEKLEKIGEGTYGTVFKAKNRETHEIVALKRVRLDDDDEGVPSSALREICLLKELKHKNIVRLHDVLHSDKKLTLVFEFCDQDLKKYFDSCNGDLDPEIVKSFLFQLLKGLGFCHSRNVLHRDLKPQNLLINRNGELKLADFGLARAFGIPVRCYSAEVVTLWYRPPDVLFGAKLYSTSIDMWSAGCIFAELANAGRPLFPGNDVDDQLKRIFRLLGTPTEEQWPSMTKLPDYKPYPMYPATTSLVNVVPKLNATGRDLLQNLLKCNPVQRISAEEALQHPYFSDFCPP
Chain of CDK5/p25 (Q15078 99-307 partner limits assumed): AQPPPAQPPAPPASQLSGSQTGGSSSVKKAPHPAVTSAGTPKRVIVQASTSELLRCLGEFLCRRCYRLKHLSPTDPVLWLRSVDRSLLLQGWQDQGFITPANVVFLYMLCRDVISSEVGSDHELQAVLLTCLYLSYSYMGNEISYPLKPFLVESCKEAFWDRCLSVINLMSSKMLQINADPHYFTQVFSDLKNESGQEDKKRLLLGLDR

## O=C1Nc2cc(Br)ccc2/C1=C1/Nc2ccccc2/C1=N\OCCN1CCN(CCOCCO)CC1 [Cpd 15, (2′Z-3′E)-6-Bromoindirubin-3′-[O-(2-{4-[2-(2-hydroxyethoxy)-ethyl]piperazin-1-yl}ethyl)oxime]]
[1]
  Circadian period length of luminescence rhythm: gradual shortening of the period length
GSK-3α/β
  IC50: 14 nM
CDK5/p25
  IC50: 310 nM
CDK1/cyclin B
  IC50: 900 nM
